Data: article PMC8073686, “Characterization of Subtype Selective Cannabinoid CB2 Receptor Agonists as Potential Anti-Inflammatory Agents” (Pharmaceuticals, 2021)

Legend:
CB2 = molecular target: T1, CB2 (Homo sapiens, UniProt P34972); test: [35S]GTPγS binding assay (G-protein coupling), CB2 containing HEK293T cell membrane; format: biochemical; details: stimulation of [35S]GTPγS binding; mean ± S.D.
T1 construct: expressed in transfected cells; host or cells: HEK293T cells, calcium phosphate transfection, membrane preparation
Protocol: We also examined if the compounds can induce G-protein coupling and act as CB2 agonists. Three compounds, ABK5-1, ABK5-2, and ABK5-6, were subjected to [^35S]GTPγS binding assays. Increasing concentrations, from 1 nM to 10 μM of the test compounds, were incubated with CB2 containing HEK293T cell membrane and [^35S]GTPγS, which binds to Gi/o in the membrane upon CB2 activation and G-protein coupling. All three compounds stimulated dose-dependent increases of specific [^35S]GTPγS binding (Figure 3).
In the experiment, 1 × 10^6 HEK293T cells were seeded in a 10-cm cell culture dish and cultured for 24 h. Cells were transfected with CB1 or CB2 using the calcium phosphate method. Approximately one day after transfection, cells were harvested and centrifuged at 4 °C for 5 min at 500× g. The pellet was washed with phosphate buffered saline (PBS) twice and resuspended in PBS containing 1% protease-inhibitor cocktail (Sigma-Aldrich, St. Louis, MO, USA) consisting of 104 mM 4-(2-aminoethyl) benzene sulfonyl fluoride hydrochloride (AEBSF), 80 μM apronitin, 4 mM bestatin, 1.64 mM E-64, 2 mM leupeptin, 1.5 mM pepstatin A. Then the cells were subjected to nitrogen cavitation under 750 psi for 5 min using a Parr cell disruption bomb. The lysate was centrifuged at 500× g for 10 min at 4 °C and the supernatant was spun at 116,000× g for 45 min at 4 °C. The pellet, consisting of the cell membrane expressing CB1 or CB2, was resuspended in TME buffer solution (25 mM Tris-HCl, 5 mM MgCl2, and 1 mM EDTA, pH 7.4) with 7% (w/v) sucrose/TME buffer. The concentration of the membrane protein was determined by the Bradford assay (Bradford, 1976).
GTPγS binding assay buffer ([…], pH 7.4, 3 mM MgCl2, 0.2 mM EGTA, and 100 mM NaCl) membrane protein, 1 nM to 10 μM of the test compounds, 0.1 nM [^35S] GTPγS (1250 Ci/mmol; PerkinElmer Life Sciences, Waltham, MA, USA), 0.1% fatty acid free BSA (w/v), 10 μM guanosine diphosphate (GDP) and GTPγS was incubated for 1 h at 30 °C with shaking. […] A Beckman Coulter 6500 liquid scintillation counter was used to measure the radioactivity of the samples. […]

Jurkat cells = test: CXCL12-mediated Jurkat cell transwell migration assay; format: cell-based, human; details: 2 h pretreatment, 2 h migration
Protocol: During inflammation, immune cells are attracted by chemoattractants and migrate to the site of inflammation. Therefore, an inhibitory effect on chemotaxis of immune cells is also a sign of anti-inflammatory effect. We evaluated ABK5-1 and ABK5-2 to determine if these compounds can inhibit CXCL12-mediated Jurkat cell migration. Jurkat cells were incubated with various concentrations of ABK5-1 or 5-2 and loaded on the transwells and allowed to migrate through the transwells to the bottom chamber, which include CXCL12. The cell number in the bottom chamber was determined after 2 h of loading. ABK5-1 inhibited Jurkat cell migration at 10 and 25 μM (Figure 5A). […] Again, to verify these observations were not due to cytotoxicity of test compounds, cell viability was also monitored by incubating cells with compound and CXCL12 without the transwells.
Figure 5 Effect of ABK5-1 and ABK5-2 on CXCL12-mediated Jurkat cell migration. Transwell migration of Jurkat cells treated with (A,B) ABK5-1 or (C,D) ABK5-2. Frames (A,C): Cells were treated with vehicle or various concentrations of test compounds for 2 h and then allowed to migrate through transwells for 2 h. Cell numbers migrated to the lower chamber are indicated as relative to vehicle (DMSO) alone. Results are indicated as the mean ± S.D. of three independent assays performed in triplicate for each concentration. Viability of cells treated with (B) ABK5-1 or (D) ABK5-2 after the migration assay was also examined. Cells were treated exactly the same but without transwells and viability was determined. Results are indicated as the mean ± S.D. of three independent assays performed for each concentration. One-way ANOVA plus Dunnett’s post-hoc test were used for both migration and viability assays. **** p < 0.0001 (versus vehicle control group).
The migration assay was performed as described previously. Briefly, a Transwell Multiple Well Plate with permeable polycarbonate membrane inserts ([…], 24-well, Corning, Corning, NY, USA) were used in migration assays. Jurkat cells were seeded at 2.5 × 10^6 cells/mL in RPMI medium containing 2.5% FBS and treated with DMSO or test compound for 2 h. Then a sample of cells were transferred to the top well. RPMI medium containing 0 to 1000 ng/mL CXCL12 and the appropriate concentration of test compound was loaded to the bottom chamber. Cells were allowed to migrate for 2 h and cells migrated from the top well to the bottom chamber were counted or measured by CCK-8 (Dojindo Molecular Technologies, Inc., Rockville, MD, USA) following the manufacturer instructions. For evaluation of cell viability, the same procedure used for the migration assay was performed without the transwells and the viable cells were counted or measured by CCK-8.

T1 sequence (P34972 whole entry): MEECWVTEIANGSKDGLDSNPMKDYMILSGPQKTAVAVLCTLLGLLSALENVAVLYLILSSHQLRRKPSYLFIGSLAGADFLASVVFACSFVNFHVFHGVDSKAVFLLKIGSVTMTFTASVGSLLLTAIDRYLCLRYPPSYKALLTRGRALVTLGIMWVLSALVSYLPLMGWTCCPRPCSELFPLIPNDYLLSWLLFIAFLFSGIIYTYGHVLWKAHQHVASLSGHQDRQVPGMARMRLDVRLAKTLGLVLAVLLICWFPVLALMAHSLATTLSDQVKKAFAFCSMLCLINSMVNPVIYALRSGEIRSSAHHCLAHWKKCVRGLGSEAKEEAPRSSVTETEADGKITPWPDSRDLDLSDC

SMILES: CCOC(=O)c1ccccc1NC(=O)CN(c1ccc(C)cc1C)S(=O)(=O)c1ccccc1 [ABK5-1]
- EC50 (CB2): 11 ± 14 nM
- decrease of cell migration (Jurkat cells; 10 μM): about 35%
- decrease of cell migration (Jurkat cells; 25 μM): ~43%

SMILES: CCOC(=O)c1ccccc1NC(=O)CN(c1c(C)cccc1C)S(=O)(=O)c1ccccc1 [ABK5-2]
- EC50 (CB2): 24 ± 25 nM
- decrease of cell migration (Jurkat cells; 10 μM): 32%
- decrease of cell migration (Jurkat cells; 25 μM): 32%
